{"source": "paper PMC2826131", "about": "(Journal of the American Chemical Society, 2010)", "key": {"ferric nNOS heme domain": {"target": "ferric nNOS heme domain (Rattus norvegicus, UniProt P29476)", "sequence (P29476 297-718 limits assumed)": "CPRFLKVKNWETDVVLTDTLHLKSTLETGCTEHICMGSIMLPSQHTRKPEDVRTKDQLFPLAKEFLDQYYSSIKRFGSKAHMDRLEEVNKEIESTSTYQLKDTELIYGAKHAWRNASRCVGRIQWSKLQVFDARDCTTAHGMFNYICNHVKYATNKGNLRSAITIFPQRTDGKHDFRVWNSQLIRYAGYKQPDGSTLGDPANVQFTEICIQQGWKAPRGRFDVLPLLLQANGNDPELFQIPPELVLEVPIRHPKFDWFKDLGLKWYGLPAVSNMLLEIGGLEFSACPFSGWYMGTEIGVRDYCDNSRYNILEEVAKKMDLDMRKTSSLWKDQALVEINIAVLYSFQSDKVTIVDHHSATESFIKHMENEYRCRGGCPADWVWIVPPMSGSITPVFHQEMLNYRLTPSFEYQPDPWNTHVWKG", "assay": "Ferric difference spectrometry", "format": "binding", "details": "type of difference spectrum toward ferric nNOS heme domain"}, "ferrous nNOS heme domain": {"target": "ferrous nNOS heme domain (Rattus norvegicus, UniProt P29476)", "sequence (P29476 297-718 limits assumed)": "as above", "assay": "Ferrous difference spectrometry", "format": "binding", "details": "type of difference spectrum toward ferrous (dithionite-reduced) nNOS heme domain"}, "rat nNOS": {"target": "rat nNOS (Rattus norvegicus, UniProt P29476)", "sequence (P29476 whole entry)": "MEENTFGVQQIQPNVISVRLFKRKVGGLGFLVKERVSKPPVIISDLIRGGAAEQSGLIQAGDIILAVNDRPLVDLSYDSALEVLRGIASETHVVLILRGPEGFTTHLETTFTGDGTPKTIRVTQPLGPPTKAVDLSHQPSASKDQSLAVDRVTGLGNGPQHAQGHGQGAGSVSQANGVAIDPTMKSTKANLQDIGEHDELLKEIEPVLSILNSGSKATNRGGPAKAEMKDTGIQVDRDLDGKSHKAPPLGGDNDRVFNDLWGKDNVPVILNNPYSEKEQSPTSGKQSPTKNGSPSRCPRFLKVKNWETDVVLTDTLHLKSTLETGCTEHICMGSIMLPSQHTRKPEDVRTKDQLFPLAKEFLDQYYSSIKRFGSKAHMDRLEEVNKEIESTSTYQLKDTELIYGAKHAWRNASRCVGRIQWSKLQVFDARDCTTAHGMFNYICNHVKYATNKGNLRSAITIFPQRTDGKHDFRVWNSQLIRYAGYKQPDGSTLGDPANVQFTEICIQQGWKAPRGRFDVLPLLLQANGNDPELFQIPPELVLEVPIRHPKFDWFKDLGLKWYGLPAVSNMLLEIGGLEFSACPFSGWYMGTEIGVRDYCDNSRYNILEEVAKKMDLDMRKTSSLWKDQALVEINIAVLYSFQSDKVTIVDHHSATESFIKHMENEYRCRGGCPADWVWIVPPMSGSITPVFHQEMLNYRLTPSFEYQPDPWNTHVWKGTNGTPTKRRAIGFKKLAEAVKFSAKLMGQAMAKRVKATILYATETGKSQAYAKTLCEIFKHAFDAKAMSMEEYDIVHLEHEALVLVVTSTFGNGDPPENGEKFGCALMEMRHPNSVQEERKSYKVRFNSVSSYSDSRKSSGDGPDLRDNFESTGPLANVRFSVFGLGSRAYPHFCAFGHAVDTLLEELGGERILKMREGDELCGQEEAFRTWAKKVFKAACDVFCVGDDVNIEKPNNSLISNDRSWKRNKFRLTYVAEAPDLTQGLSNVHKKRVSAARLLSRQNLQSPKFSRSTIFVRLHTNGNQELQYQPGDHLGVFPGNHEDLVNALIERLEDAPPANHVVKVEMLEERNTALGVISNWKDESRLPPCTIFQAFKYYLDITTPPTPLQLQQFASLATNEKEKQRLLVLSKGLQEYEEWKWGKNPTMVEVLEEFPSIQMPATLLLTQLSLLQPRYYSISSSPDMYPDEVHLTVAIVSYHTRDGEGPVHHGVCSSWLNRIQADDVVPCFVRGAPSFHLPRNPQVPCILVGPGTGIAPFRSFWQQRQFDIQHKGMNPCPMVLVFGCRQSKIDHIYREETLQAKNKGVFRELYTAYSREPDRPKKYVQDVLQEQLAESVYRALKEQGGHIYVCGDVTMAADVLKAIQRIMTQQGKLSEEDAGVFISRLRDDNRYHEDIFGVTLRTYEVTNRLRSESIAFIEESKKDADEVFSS", "assay": "NOS hemoglobin capture assay, Ki from IC50", "format": "biochemical", "details": "10 μM L-arginine, calculated from IC50, mean ± SD of 2-3 experiments"}}, "data": [{"smiles": "NC(=NCCC[C@H](N)C(=O)O)N[N+](=O)[O-]", "note": "[L-Nitroarginine]", "values": [{"measurement": "Fe^3+ type", "setting": "ferric nNOS heme domain", "value": "I"}, {"measurement": "Fe^2+ type", "setting": "ferrous nNOS heme domain", "value": "I"}]}, {"smiles": "c1c[nH]cn1", "note": "[Imidazole]", "values": [{"measurement": "Ki", "setting": "rat nNOS", "value": "29.7 ± 0.8", "unit": "µM"}, {"measurement": "Fe^2+ type", "setting": "ferrous nNOS heme domain", "value": "I"}]}]}
